Measured values taken from ChEMBL document CHEMBL1147953, “9-Nitroanthracene derivative as a precursor of anthraquinone for photodynamic therapy” (Bioorg Med Chem, 2007).
Activity calls are given as the source filed them. No cut-off for these calls is given here.

Legend:
Escherichia coli [1] = experiment: Induction of strand cleavage in pBR322 DNA after irradiation with 5 J/cm^2 assessed as conversion of supercoiled DNA to […] circular form at 200 uM
Escherichia coli [2] = experiment: Induction of strand cleavage in pBR322 DNA in absence of irradiation assessed as conversion of supercoiled DNA to […] circular form at 200 uM

Row | Activity (Escherichia coli [1]) | Activity (Escherichia coli [2]) | Structure (SMILES)
1 | Active | inactive | CN(C)CCCC(=O)Nc1ccc2cc3ccccc3c([N+](=O)[O-])c2c1
2 | Active | inactive | CN(C)CCCC(=O)Nc1ccc2cc3ccccc3cc2c1[N+](=O)[O-]
